Biological target: T1, human Cav2.2 (Homo sapiens, UniProt Q00975)
T1 construct: cells endogenously expressing human Cav2.2; endogenous in cells; host or cells: IMR32 cells
Assay: Calcium flux (FLIPR, Calcium 4 dye) in IMR32 cells endogenously expressing human Cav2.2
Assay type: cell-based
Conditions: 60 minute pre-incubation, 2 μM nifedipine to block L-type channels, depolarized with 80 mM KCl, 5 mM CaCl2, average of n≥2 runs unless marked *
Method: Compounds were tested for effect on calcium flux in cells endogenously expressing human Cav2.2. Specifically, IMR32 cells endogenously expressing human Cav2.2 were assayed for Ca^2+ influx using a no-wash calcium indicator dye (Calcium 4 dye: Molecular Probes) and FLIPR technology (Lubin, M L; et al. Assay and Drug Development Technologies, 2006, 4(6), 689-694). The IMR32 cells were maintained in MEM media containing 10% (v/v) FBS, 1% (v/v) antibiotic/antimitotic, 1% (v/v) sodium pyruvate and 1% (v/v) MEM NEAA. Following dissociation in 0.05% (v/v) trypsin/EDTA, cells were seeded into black 1×96-well plates (Corning Cellbind) at a density of 1−1.2×10^5 cells/well and incubated in the maintenance media above for 48 hours at 37° C. Immediately prior to performing the assay the media was removed and cells were loaded for 1.5 hours with 1× Calcium 4 dye prepared in HBSS (137 mM NaCl, 5.4 mM KCl, 0.25 mM Na2HPO4, 0.44 mM KH2PO4, 1.3 mM CaCl2, 1 mM MgSO4, 4.2 mM NaHCO3) containing HEPES pH 7.4 at room temperature. After dye loading and a subsequent 60 minute pre-incubation with compounds (full log dilutions from 10 μM to 0.1 nM) in the presence of 1.3 mM CaCl2 and 2 μM nifedipine to block endogenous L-type channels, the external Ca^2+ concentration was increased to 5 mM CaCl2 and the cells concomitantly depolarized with 80 mM KCl to assay channel activity.
To determine the IC50 values, the percent inhibition of the compound at each concentration was determined relative to the activity in the absence of inhibitor, and data was fitted using non-linear regression sigmoidal dose response curve analysis with GraphPad Prism®. Unless otherwise indicated (*), the reported values are average values from at least two runs (i.e., n≧2).

T1 sequence (Q00975 whole entry): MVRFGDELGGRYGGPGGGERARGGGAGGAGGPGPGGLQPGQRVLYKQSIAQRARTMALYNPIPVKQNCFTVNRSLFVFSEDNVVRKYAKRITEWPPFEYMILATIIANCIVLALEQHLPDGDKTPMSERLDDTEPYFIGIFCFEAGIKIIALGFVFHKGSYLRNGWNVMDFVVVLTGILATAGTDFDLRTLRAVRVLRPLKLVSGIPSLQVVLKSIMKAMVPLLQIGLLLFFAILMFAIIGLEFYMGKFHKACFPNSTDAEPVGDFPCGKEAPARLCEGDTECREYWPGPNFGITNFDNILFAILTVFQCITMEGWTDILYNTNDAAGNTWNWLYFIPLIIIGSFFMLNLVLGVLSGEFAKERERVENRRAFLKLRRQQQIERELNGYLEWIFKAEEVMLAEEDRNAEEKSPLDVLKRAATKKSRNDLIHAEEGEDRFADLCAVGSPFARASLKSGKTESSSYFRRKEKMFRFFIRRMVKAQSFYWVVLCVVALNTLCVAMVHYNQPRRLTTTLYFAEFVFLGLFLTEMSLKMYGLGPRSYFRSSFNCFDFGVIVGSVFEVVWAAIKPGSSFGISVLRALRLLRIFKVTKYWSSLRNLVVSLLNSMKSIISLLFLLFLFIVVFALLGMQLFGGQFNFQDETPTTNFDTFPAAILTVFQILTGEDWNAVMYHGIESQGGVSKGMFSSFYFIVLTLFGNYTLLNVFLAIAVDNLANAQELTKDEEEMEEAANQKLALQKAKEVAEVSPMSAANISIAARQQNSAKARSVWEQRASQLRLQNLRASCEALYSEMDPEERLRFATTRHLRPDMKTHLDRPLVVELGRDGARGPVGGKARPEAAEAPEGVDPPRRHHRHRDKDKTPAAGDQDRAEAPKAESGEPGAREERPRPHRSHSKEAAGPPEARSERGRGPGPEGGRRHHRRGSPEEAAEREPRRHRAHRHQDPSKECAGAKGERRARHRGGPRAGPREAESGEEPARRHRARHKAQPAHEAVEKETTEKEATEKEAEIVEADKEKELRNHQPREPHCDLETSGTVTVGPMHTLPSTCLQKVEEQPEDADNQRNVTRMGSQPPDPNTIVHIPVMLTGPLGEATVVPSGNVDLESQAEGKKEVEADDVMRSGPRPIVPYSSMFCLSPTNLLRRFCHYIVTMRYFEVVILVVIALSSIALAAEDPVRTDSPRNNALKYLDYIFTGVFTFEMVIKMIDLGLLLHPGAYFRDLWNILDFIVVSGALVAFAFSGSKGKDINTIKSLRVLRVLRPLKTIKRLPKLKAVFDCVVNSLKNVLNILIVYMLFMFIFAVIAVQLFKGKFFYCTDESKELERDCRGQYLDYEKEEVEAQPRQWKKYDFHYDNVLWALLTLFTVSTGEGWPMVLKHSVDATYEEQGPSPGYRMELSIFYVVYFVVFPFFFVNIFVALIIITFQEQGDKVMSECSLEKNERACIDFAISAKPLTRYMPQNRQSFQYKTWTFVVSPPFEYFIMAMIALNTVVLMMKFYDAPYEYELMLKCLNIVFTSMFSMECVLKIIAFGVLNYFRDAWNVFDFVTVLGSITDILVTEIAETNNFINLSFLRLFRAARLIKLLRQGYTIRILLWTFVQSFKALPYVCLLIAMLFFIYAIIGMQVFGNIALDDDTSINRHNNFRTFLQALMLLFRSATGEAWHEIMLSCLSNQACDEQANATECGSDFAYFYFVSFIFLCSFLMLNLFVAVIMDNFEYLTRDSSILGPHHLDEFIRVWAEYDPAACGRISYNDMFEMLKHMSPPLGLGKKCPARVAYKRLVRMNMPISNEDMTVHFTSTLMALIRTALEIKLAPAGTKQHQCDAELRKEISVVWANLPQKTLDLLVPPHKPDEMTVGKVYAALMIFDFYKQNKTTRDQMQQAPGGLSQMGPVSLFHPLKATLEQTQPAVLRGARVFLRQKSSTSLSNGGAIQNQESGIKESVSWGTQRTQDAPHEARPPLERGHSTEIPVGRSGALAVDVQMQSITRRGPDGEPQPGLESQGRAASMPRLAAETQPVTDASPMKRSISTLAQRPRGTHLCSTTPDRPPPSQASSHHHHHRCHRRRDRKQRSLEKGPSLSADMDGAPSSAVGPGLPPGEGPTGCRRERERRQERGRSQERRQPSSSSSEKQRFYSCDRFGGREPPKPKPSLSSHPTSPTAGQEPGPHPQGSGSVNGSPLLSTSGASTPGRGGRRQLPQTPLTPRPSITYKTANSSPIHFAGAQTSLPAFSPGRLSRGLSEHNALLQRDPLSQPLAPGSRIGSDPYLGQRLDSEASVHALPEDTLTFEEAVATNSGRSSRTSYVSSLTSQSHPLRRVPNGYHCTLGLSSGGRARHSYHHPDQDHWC
T1 sequence (P54284 whole entry partner): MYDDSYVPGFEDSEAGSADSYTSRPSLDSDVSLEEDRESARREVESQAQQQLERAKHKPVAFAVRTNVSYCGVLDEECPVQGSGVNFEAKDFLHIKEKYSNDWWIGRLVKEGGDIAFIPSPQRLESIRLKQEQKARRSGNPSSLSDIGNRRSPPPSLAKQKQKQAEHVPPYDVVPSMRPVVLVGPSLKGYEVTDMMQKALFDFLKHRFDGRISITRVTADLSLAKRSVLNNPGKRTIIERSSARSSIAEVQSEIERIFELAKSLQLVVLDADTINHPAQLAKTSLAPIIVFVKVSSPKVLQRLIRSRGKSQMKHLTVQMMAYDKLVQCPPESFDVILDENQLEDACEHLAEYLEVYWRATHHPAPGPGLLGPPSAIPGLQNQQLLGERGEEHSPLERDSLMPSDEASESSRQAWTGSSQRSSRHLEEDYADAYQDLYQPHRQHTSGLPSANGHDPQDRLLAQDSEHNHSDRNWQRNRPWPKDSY
T1 sequence (P54289 25-956 partner limits assumed): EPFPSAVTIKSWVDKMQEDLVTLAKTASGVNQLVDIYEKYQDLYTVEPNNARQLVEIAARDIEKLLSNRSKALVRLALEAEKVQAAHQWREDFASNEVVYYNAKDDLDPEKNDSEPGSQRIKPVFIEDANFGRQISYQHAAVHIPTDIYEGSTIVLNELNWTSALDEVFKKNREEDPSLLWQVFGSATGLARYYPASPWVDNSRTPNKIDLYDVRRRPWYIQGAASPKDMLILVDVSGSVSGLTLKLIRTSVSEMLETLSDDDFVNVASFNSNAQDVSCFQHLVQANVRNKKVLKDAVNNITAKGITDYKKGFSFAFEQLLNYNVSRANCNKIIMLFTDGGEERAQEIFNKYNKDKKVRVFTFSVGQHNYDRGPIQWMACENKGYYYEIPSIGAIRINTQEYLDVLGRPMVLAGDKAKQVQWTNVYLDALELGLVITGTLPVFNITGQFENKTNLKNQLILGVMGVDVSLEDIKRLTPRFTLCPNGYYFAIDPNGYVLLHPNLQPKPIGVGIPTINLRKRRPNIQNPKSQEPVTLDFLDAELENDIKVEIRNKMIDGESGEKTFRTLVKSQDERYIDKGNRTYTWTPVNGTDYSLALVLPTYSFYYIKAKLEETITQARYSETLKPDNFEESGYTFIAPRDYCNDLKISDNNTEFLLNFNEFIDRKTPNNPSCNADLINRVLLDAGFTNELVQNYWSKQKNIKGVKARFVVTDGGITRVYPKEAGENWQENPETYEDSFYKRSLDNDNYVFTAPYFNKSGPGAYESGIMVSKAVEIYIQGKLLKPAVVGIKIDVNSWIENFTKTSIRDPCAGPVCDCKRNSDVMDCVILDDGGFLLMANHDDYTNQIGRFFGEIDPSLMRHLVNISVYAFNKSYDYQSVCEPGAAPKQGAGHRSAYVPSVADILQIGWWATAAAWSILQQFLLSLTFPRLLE
T1 sequence (P54289 957-1103 partner limits assumed): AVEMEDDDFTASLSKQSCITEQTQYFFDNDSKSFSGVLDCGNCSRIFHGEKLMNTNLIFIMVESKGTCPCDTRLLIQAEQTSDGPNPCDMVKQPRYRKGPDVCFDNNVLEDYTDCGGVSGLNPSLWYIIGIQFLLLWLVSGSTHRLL

Compound	IC50
O=C1CCN(c2cnc(C3CC3)cn2)C[C@@H]2C[C@@H](Oc3ccc(C(F)(F)F)cn3)CN12 [Example 51, (8R,9aS)-2-(5-cyclopropylpyrazin-2-yl)-8-{[5-(trifluoromethyl)pyridin-2-yl]oxy}octahydro-5H-pyrrolo[1,2-a][1,4]diazepin-5-one]	7.35 µM
O=C1CCN(c2ccc(C(F)(F)F)cn2)C[C@H]2C[C@H](Oc3cnc(C4CC4)cn3)CN12 [Example 46, (8S,9aR)-8-[(5-cyclopropylpyrazin-2-yl)oxy]-2-[5-(trifluoromethyl)pyridin-2-yl]octahydro-5H-pyrrolo[1,2-a][1,4]diazepin-5-one]	5.07 µM
CNC(C(=O)N1CCC(=O)N2C[C@H](Oc3cnc(C4CC4)cn3)C[C@H]2C1)c1cccc(C(F)(F)F)c1 (stereo partly drawn) [Example 41, (8R,9aS)-8-[(5-cyclopropylpyrazin-2-yl)oxy]-2-{(methylamino)[3-(trifluoromethyl)phenyl]acetyl}octahydro-5H-pyrrolo[1,2-a][1,4]diazepin-5-one]	3.45 µM
O=C1CCN(c2cccc(C(F)(F)F)n2)C[C@@H]2C[C@@H](Oc3cnc(C4CC4)cn3)CN12 [Example 48, (8R,9aS)-8-[(5-cyclopropylpyrazin-2-yl)oxy]-2-[6-(trifluoromethyl)pyridin-2-yl]octahydro-5H-pyrrolo[1,2-a][1,4]diazepin-5-one]	1.54 µM
O=C1CCN(c2ncc(C(F)(F)F)cc2F)C[C@@H]2C[C@@H](Oc3cnc(C4CC4)cn3)CN12 [Example 50, (8R,9aS)-8-[(5-cyclopropylpyrazin-2-yl)oxy]-2-[3-fluoro-5-(trifluoromethyl)pyridin-2-yl]octahydro-5H-pyrrolo[1,2-a][1,4]diazepin-5-one]	2.46 µM
O=C1CCN(c2ncc(C(F)(F)F)cc2Cl)C[C@@H]2C[C@@H](Oc3cnc(C4CC4)cn3)CN12 [Example 49, (8R,9aS)-2-[3-chloro-5-(trifluoromethyl)pyridin-2-yl]-8-[(5-cyclopropylpyrazin-2-yl)oxy]octahydro-5H-pyrrolo[1,2-a][1,4]diazepin-5-one]	2.13 µM
O=S(=O)(c1ccc(C(F)(F)F)cc1)N1CCCN2C[C@H](Oc3cnc(C4CC4)cn3)C[C@H]2C1 [Example 2, (8R,9aS)-8-[(5-cyclopropylpyrazin-2-yl)oxy]-2-{[4-(trifluoromethyl)phenyl]sulfonyl}octahydro-1H-pyrrolo[1,2-a][1,4]diazepane]	0.2 µM
(8R,9aS)-8-[(5-cyclopropylpyrazin-2-yl)oxy]-2-{[3-(trifluoromethyl)phenyl]sulfonyl}octahydro-1H-pyrrolo[1,2-a][1,4]diazepane [Example 1]	0.32 µM
O=C(c1ccc(C(F)(F)F)cn1)N1CCCN2C[C@H](Oc3cnc(C4CC4)cn3)C[C@H]2C1 [Example 11, [(8R,9aS)-8-[(5-cyclopropylpyrazin-2-yl)oxy]hexahydro-1H-pyrrolo[1,2-a][1,4]diazepin-2(3H)-yl][5-(trifluoromethyl)pyridin-2-yl]methanone]	9.27 µM
O=C(c1ccc(F)c(C(F)(F)F)c1)N1CCCN2C[C@H](Oc3cnc(C4CC4)cn3)C[C@H]2C1 [Example 14, [(8R,9aS)-8-[(5-cyclopropylpyrazin-2-yl)oxy]hexahydro-1H-pyrrolo[1,2-a][1,4]diazepin-2(3H)-yl][4-fluoro-3-(trifluoromethyl)phenyl]methanone]	1.45 µM
O=C1CCN(S(=O)(=O)c2ccc(C(F)(F)F)cc2)C[C@@H]2C[C@@H](Oc3ccc(C(F)(F)F)cn3)CN12 [Example 52, (8R,9aS)-2-{[4-(trifluoromethyl)phenyl]sulfonyl}-8-{[5-(trifluoromethyl)pyridin-2-yl]oxy}octahydro-5H-pyrrolo[1,2-a][1,4]diazepin-5-one]	1.26 µM
O=C1CCN(S(=O)(=O)c2ccc(C(F)(F)F)cc2)C[C@@H]2C[C@@H](Oc3ccc(C(F)(F)F)nc3)CN12 [Example 54, (8R,9aS)-2-{[4-(trifluoromethyl)phenyl]sulfonyl}-8-{[6-(trifluoromethyl)pyridin-3-yl]oxy}octahydro-5H-pyrrolo[1,2-a][1,4]diazepin-5-one]	1.29 µM
O=C1CCN(S(=O)(=O)c2ccc(C(F)(F)F)cc2)C[C@H]2C[C@@H](Oc3cnc(C4CC4)cn3)CN12 [Example 58, (8R,9aR)-8-[(5-cyclopropylpyrazin-2-yl)oxy]-2-{[4-(trifluoromethyl)phenyl]sulfonyl}octahydro-5H-pyrrolo[1,2-a][1,4]diazepin-5-one]	3.75 µM
O=C1[C@@H](Oc2ccc(C(F)(F)F)cn2)C[C@H]2CN(S(=O)(=O)c3cccc(C(F)(F)F)c3)CCCN12 [Example 3, (8S,9aS)-2-{[3-(trifluoromethyl)phenyl]sulfonyl}-8-{[5-(trifluoromethyl)pyridin-2-yl]oxy}octahydro-7H-pyrrolo[1,2-a][1,4]diazepin-7-one]	1.25 µM
O=C1[C@H](Oc2cnc(C3CC3)cn2)C[C@H]2CN(c3ccc(C(F)(F)F)cn3)CCCN12 [Example 21, (8R,9aS)-8-[(5-cyclopropylpyrazin-2-yl)oxy]-2-[5-(trifluoromethyl)pyridin-2-yl]octahydro-7H-pyrrolo[1,2-a][1,4]diazepin-7-one]	3.47 µM
O=C(c1cccc(C(F)(F)F)c1F)N1CCCN2C[C@H](Oc3cnc(C4CC4)cn3)C[C@H]2C1 [Example 10, [(8R,9aS)-8-[(5-cyclopropylpyrazin-2-yl)oxy]hexahydro-1H-pyrrolo[1,2-a][1,4]diazepin-2(3H)-yl][2-fluoro-3-(trifluoromethyl)phenyl]methanone]	0.92 µM
O=C(c1cc(C(F)(F)F)ccc1F)N1CCCN2C[C@H](Oc3cnc(C4CC4)cn3)C[C@H]2C1 [Example 17, [(8R,9aS)-8-[(5-cyclopropylpyrazin-2-yl)oxy]hexahydro-1H-pyrrolo[1,2-a][1,4]diazepin-2(3H)-yl][2-fluoro-5-(trifluoromethyl)phenyl]methanone]	1.58 µM

Second part, the compound after the results:

IC50	Compound
1.14 µM	O=C(c1cccc(OC(F)(F)F)c1)N1CCC(=O)N2C[C@H](Oc3cnc(C4CC4)cn3)C[C@H]2C1 [Example 37, (8R,9aS)-8-[(5-cyclopropylpyrazin-2-yl)oxy]-2-[3-(trifluoromethoxy)benzoyl]octahydro-5H-pyrrolo[1,2-a][1,4]diazepin-5-one]
22.5 µM	O=C(c1cccc(C(F)(F)F)c1)N1CCC(=O)N2C[C@@H](Oc3cnc(C4CC4)cn3)C[C@@H]2C1 [Example 63, (8S,9aR)-8-[(5-cyclopropylpyrazin-2-yl)oxy]-2-[3-(trifluoromethyl)benzoyl]octahydro-5H-pyrrolo[1,2-a][1,4]diazepin-5-one]
4.7 µM	O=C(C(O)c1cccc(C(F)(F)F)c1)N1CCC(=O)N2C[C@H](Oc3cnc(C4CC4)cn3)C[C@H]2C1 (stereo partly drawn) [Example 40, (8R,9aS)-8-[(5-cyclopropylpyrazin-2-yl)oxy]-2-{hydroxy[3-(trifluoromethyl)phenyl]acetyl}octahydro-5H-pyrrolo[1,2-a][1,4]diazepin-5-one]
1.01 µM	O=C(c1cccc(C(F)(F)F)c1F)N1CCC(=O)N2C[C@H](Oc3cnc(C4CC4)cn3)C[C@H]2C1 [Example 34, (8R,9aS)-8-[(5-cyclopropylpyrazin-2-yl)oxy]-2-[2-fluoro-3-(trifluoromethyl)benzoyl]octahydro-5H-pyrrolo[1,2-a][1,4]diazepin-5-one]
18.8 µM	O=C(c1cccc(C(F)(F)F)c1)N1CCC(=O)N2C[C@@H](Oc3cnc(C4CC4)cn3)C[C@H]2C1 [Example 60, (8S,9aS)-8-[(5-cyclopropylpyrazin-2-yl)oxy]-2-[3-(trifluoromethyl)benzoyl]octahydro-5H-pyrrolo[1,2-a][1,4]diazepin-5-one]
3.73 µM	O=C(c1ccc(C(F)(F)F)cc1)N1CCC(=O)N2C[C@H](Oc3cnc(C4CC4)cn3)C[C@H]2C1 [Example 33, (8R,9aS)-8-[(5-cyclopropylpyrazin-2-yl)oxy]-2-[4-(trifluoromethyl)benzoyl]octahydro-5H-pyrrolo[1,2-a][1,4]diazepin-5-one]
2.81 µM	O=C(c1ccc(OC(F)(F)F)cc1)N1CCC(=O)N2C[C@H](Oc3cnc(C4CC4)cn3)C[C@H]2C1 [Example 38, (8R,9aS)-8-[(5-cyclopropylpyrazin-2-yl)oxy]-2-[4-(trifluoromethoxy)benzoyl]octahydro-5H-pyrrolo[1,2-a][1,4]diazepin-5-one]
1.11 µM	O=C1CCN(Cc2cccc(OC(F)(F)F)c2)C[C@@H]2C[C@@H](Oc3cnc(C4CC4)cn3)CN12 [Example 43, (8R,9aS)-8-[(5-cyclopropylpyrazin-2-yl)oxy]-2-[3-(trifluoromethoxy)benzyl]octahydro-5H-pyrrolo[1,2-a][1,4]diazepin-5-one]
